According to US20030129629A1, “Methods and compositions for the identification, assessment, prevention, and therapy of human cancers” (Millennium Pharmaceuticals, Inc., priority 2000, published 2003):
Like-named read-outs stand apart in the source and are kept apart here.

How the values were obtained:
[1] = tested on: 60 cancer cell lines (NCI 60 cancer cell line series); conditions: cited from earlier work
[2] = tested on: 60 cancer cell lines (NCI 60 cancer cell line series); experiment: NCI-DTP in vitro cancer screen, sulforhodamine B (SRB) growth inhibition, 48 hour exposure; format: cell-based, human
In short: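 NCI-DTP panel of 60 cancer cell lines plated day 0 at line-specific densities, exposed from day 1 to compound at 5 ten-fold-spaced doses in duplicate wells. After 48 h, cell mass stained with sulforhodamine B; −log GI50 derived from dose–response curves, averaged, and classed Low, Medium or High sensitivity.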

COc1cccc2c1C(=O)c1c(O)c3c(c(O)c1C2=O)C[C@@](O)(C(=O)CO)C[C@@H]3O[C@H]1C[C@H](N)[C@H](O)[C@H](C)O1 [Adriamycin]
3: classification of cell line as Low(1), Medium(2), High(3) sensitivity to compound ([2]; Breast MCF7(I) CL5001) | classification of cell line as Low(1), Medium(2), High(3) sensitivity to compound ([2]; Leukemia CCRF-CEM(I) CL7003) | classification of cell line as Low(1), Medium(2), High(3) sensitivity to compound ([2]; Leukemia MOLT-4 CL7006) | classification of cell line as Low(1), Medium(2), High(3) sensitivity to compound ([2]; Leukemia SR CL7019) | sensitivity classification Low(1)/Medium(2)/High(3) ([2]; NSCLC NCI-H460 CL1021)
7.2: −Log (GI50) ([1]; NSCLC NCI-H226 CL1013)
6.5: −Log (GI50) ([1]; Melanoma SK-MEL-28 CL10008)
1: classification of cell line as Low(1), Medium(2), High(3) sensitivity to compound ([2]; Breast MCF7/ADRr CL5002) | classification of cell line as Low(1), Medium(2), High(3) sensitivity to compound ([2]; Colon HCT-15 CL4015) | sensitivity classification Low(1)/Medium(2)/High(3) ([2]; NSCLC NCI-H332M CL1017) | sensitivity classification Low(1)/Medium(2)/High(3) ([2]; Ovarian OVCAR-4 CL6002) | sensitivity classification Low(1)/Medium(2)/High(3) ([2]; Ovarian OVCAR-5 CL6003) | sensitivity classification Low(1)/Medium(2)/High(3) ([2]; Renal UO-31 CL9004)
2: classification of cell line as Low(1), Medium(2), High(3) sensitivity to compound ([2]; Breast BT-549 CL5013) | classification of cell line as Low(1), Medium(2), High(3) sensitivity to compound ([2]; Breast HS-578T CL5006) | classification of cell line as Low(1), Medium(2), High(3) sensitivity to compound ([2]; Breast MDA-MB-231 CL5005) | classification of cell line as Low(1), Medium(2), High(3) sensitivity to compound ([2]; Breast MDA-MB-435 CL5011) | classification of cell line as Low(1), Medium(2), High(3) sensitivity to compound ([2]; Breast MDA-N CL5012) | classification of cell line as Low(1), Medium(2), High(3) sensitivity to compound ([2]; Breast T-47D CL5014) | classification of cell line as Low(1), Medium(2), High(3) sensitivity to compound ([2]; CNS SF-268 CL12014) | classification of cell line as Low(1), Medium(2), High(3) sensitivity to compound ([2]; CNS SF-295 CL12015) | classification of cell line as Low(1), Medium(2), High(3) sensitivity to compound ([2]; CNS SF-539 CL12016) | classification of cell line as Low(1), Medium(2), High(3) sensitivity to compound ([2]; CNS SNB-19 CL12002) | classification of cell line as Low(1), Medium(2), High(3) sensitivity to compound ([2]; CNS SNB-75(I) CL12005) | classification of cell line as Low(1), Medium(2), High(3) sensitivity to compound ([2]; CNS U251(I) CL12009) | classification of cell line as Low(1), Medium(2), High(3) sensitivity to compound ([2]; Colon COLO-250 CL4010) | classification of cell line as Low(1), Medium(2), High(3) sensitivity to compound ([2]; Colon HCC-2998 CL4002) | classification of cell line as Low(1), Medium(2), High(3) sensitivity to compound ([2]; Colon HCT-116 CL4003) | classification of cell line as Low(1), Medium(2), High(3) sensitivity to compound ([2]; Colon HT29(I) CL4001) | classification of cell line as Low(1), Medium(2), High(3) sensitivity to compound ([2]; Colon KM12 CL4017) | classification of cell line as Low(1), Medium(2), High(3) sensitivity to compound ([2]; Colon SW-620 CL4009) | classification of cell line as Low(1), Medium(2), High(3) sensitivity to compound ([2]; Leukemia HL-60(I) CL7008) | classification of cell line as Low(1), Medium(2), High(3) sensitivity to compound ([2]; Leukemia K562(I) CL7005) | classification of cell line as Low(1), Medium(2), High(3) sensitivity to compound ([2]; Leukemia RPMI-8226(I) CL7010) | classification of cell line as Low(1), Medium(2), High(3) sensitivity to compound ([2]; Melanoma LOX IMVI CL10001) | classification of cell line as Low(1), Medium(2), High(3) sensitivity to compound ([2]; Melanoma M14 CL10014) | classification of cell line as Low(1), Medium(2), High(3) sensitivity to compound ([2]; Melanoma MALME-3M CL10002) | classification of cell line as Low(1), Medium(2), High(3) sensitivity to compound ([2]; Melanoma SK-MEL-2 CL10005) | classification of cell line as Low(1), Medium(2), High(3) sensitivity to compound ([2]; Melanoma SK-MEL-28 CL10008) | sensitivity classification Low(1)/Medium(2)/High(3) ([2]; NSCLC NCI-H23(I) CL1001) | sensitivity classification Low(1)/Medium(2)/High(3) ([2]; NSCLC NCI-H522 CL1003) | sensitivity classification Low(1)/Medium(2)/High(3) ([2]; Ovarian IGROV1 CL6010) | sensitivity classification Low(1)/Medium(2)/High(3) ([2]; Ovarian OVCAR-3 CL6001) | sensitivity classification Low(1)/Medium(2)/High(3) ([2]; Ovarian OVCAR-8 CL6005) | sensitivity classification Low(1)/Medium(2)/High(3) ([2]; Ovarian SK-OV-3 CL6011) | sensitivity classification Low(1)/Medium(2)/High(3) ([2]; Prostate DU-145 CL11003) | sensitivity classification Low(1)/Medium(2)/High(3) ([2]; Prostate PC-3(I) CL11001) | sensitivity classification Low(1)/Medium(2)/High(3) ([2]; Renal 786-0 CL9018) | sensitivity classification Low(1)/Medium(2)/High(3) ([2]; Renal A498 CL9013) | sensitivity classification Low(1)/Medium(2)/High(3) ([2]; Renal ACHN CL9023) | sensitivity classification Low(1)/Medium(2)/High(3) ([2]; Renal CAKI-1 CL9015) | sensitivity classification Low(1)/Medium(2)/High(3) ([2]; Renal RXF-393 CL9016) | sensitivity classification Low(1)/Medium(2)/High(3) ([2]; Renal SN12C CL9008) | sensitivity classification Low(1)/Medium(2)/High(3) ([2]; Renal TK10 CL9024)
6.6: −Log (GI50) ([1]; Melanoma SK-MEL-2 CL10005)

COc1cccc2c1C(=O)c1c(O)c3c(c(O)c1C2=O)C[C@@](O)(C(C)=O)C[C@@H]3O[C@H]1C[C@H](N)[C@H](O)[C@H](C)O1 [Daunorubicin]
3: classification of cell line as Low(1), Medium(2), High(3) sensitivity to compound ([2]; Breast MCF7(I) CL5001) | classification of cell line as Low(1), Medium(2), High(3) sensitivity to compound ([2]; Leukemia CCRF-CEM(I) CL7003) | classification of cell line as Low(1), Medium(2), High(3) sensitivity to compound ([2]; Leukemia HL-60(I) CL7008) | classification of cell line as Low(1), Medium(2), High(3) sensitivity to compound ([2]; Leukemia MOLT-4 CL7006) | classification of cell line as Low(1), Medium(2), High(3) sensitivity to compound ([2]; Leukemia SR CL7019) | sensitivity classification Low(1)/Medium(2)/High(3) ([2]; NSCLC NCI-H460 CL1021)
5.3: −Log (GI50) ([1]; Breast MCF7/ADRr CL5002)
2: classification of cell line as Low(1), Medium(2), High(3) sensitivity to compound ([2]; Breast T-47D CL5014) | classification of cell line as Low(1), Medium(2), High(3) sensitivity to compound ([2]; CNS SF-268 CL12014) | classification of cell line as Low(1), Medium(2), High(3) sensitivity to compound ([2]; CNS SF-295 CL12015) | classification of cell line as Low(1), Medium(2), High(3) sensitivity to compound ([2]; CNS SNB-19 CL12002) | classification of cell line as Low(1), Medium(2), High(3) sensitivity to compound ([2]; CNS SNB-75(I) CL12005) | classification of cell line as Low(1), Medium(2), High(3) sensitivity to compound ([2]; CNS U251(I) CL12009) | classification of cell line as Low(1), Medium(2), High(3) sensitivity to compound ([2]; Colon HCT-116 CL4003) | classification of cell line as Low(1), Medium(2), High(3) sensitivity to compound ([2]; Colon HT29(I) CL4001) | classification of cell line as Low(1), Medium(2), High(3) sensitivity to compound ([2]; Colon SW-620 CL4009) | classification of cell line as Low(1), Medium(2), High(3) sensitivity to compound ([2]; Melanoma MALME-3M CL10002) | classification of cell line as Low(1), Medium(2), High(3) sensitivity to compound ([2]; Melanoma SK-MEL-5 CL10007) | classification of cell line as Low(1), Medium(2), High(3) sensitivity to compound ([2]; Melanoma UACC-62 CL10020) | classification of cell line as Low(1), Medium(2), High(3) sensitivity to compound ([2]; NSCLC A549/ATCC CL1004) | classification of cell line as Low(1), Medium(2), High(3) sensitivity to compound ([2]; NSCLC HOP-62 CL1026) | classification of cell line as Low(1), Medium(2), High(3) sensitivity to compound ([2]; NSCLC HOP-92 CL1029) | sensitivity classification Low(1)/Medium(2)/High(3) ([2]; NSCLC NCI-H23(I) CL1001) | classification of cell line as Low(1), Medium(2), High(3) sensitivity to compound ([2]; NSCLC NCI-H226 CL1013) | sensitivity classification Low(1)/Medium(2)/High(3) ([2]; NSCLC NCI-H522 CL1003) | sensitivity classification Low(1)/Medium(2)/High(3) ([2]; Ovarian IGROV1 CL6010) | sensitivity classification Low(1)/Medium(2)/High(3) ([2]; Ovarian OVCAR-8 CL6005) | sensitivity classification Low(1)/Medium(2)/High(3) ([2]; Prostate DU-145 CL11003) | sensitivity classification Low(1)/Medium(2)/High(3) ([2]; Prostate PC-3(I) CL11001) | sensitivity classification Low(1)/Medium(2)/High(3) ([2]; Renal 786-0 CL9018) | sensitivity classification Low(1)/Medium(2)/High(3) ([2]; Renal ACHN CL9023) | sensitivity classification Low(1)/Medium(2)/High(3) ([2]; Renal CAKI-1 CL9015) | sensitivity classification Low(1)/Medium(2)/High(3) ([2]; Renal SN12C CL9008)
7.5: −Log (GI50) ([1]; NSCLC NCI-H226 CL1013)
1: classification of cell line as Low(1), Medium(2), High(3) sensitivity to compound ([2]; Breast BT-549 CL5013) | classification of cell line as Low(1), Medium(2), High(3) sensitivity to compound ([2]; Breast MCF7/ADRr CL5002) | classification of cell line as Low(1), Medium(2), High(3) sensitivity to compound ([2]; Breast MDA-MB-231 CL5005) | classification of cell line as Low(1), Medium(2), High(3) sensitivity to compound ([2]; Breast MDA-MB-435 CL5011) | classification of cell line as Low(1), Medium(2), High(3) sensitivity to compound ([2]; Breast MDA-N CL5012) | classification of cell line as Low(1), Medium(2), High(3) sensitivity to compound ([2]; Colon COLO-250 CL4010) | classification of cell line as Low(1), Medium(2), High(3) sensitivity to compound ([2]; Colon HCC-2998 CL4002) | classification of cell line as Low(1), Medium(2), High(3) sensitivity to compound ([2]; Colon HCT-15 CL4015) | classification of cell line as Low(1), Medium(2), High(3) sensitivity to compound ([2]; Melanoma M14 CL10014) | classification of cell line as Low(1), Medium(2), High(3) sensitivity to compound ([2]; Melanoma SK-MEL-28 CL10008) | classification of cell line as Low(1), Medium(2), High(3) sensitivity to compound ([2]; Melanoma UACC-257 CL10021) | classification of cell line as Low(1), Medium(2), High(3) sensitivity to compound ([2]; NSCLC EKVX CL1008) | sensitivity classification Low(1)/Medium(2)/High(3) ([2]; NSCLC NCI-H332M CL1017) | sensitivity classification Low(1)/Medium(2)/High(3) ([2]; Ovarian OVCAR-3 CL6001) | sensitivity classification Low(1)/Medium(2)/High(3) ([2]; Ovarian OVCAR-4 CL6002) | sensitivity classification Low(1)/Medium(2)/High(3) ([2]; Ovarian OVCAR-5 CL6003) | sensitivity classification Low(1)/Medium(2)/High(3) ([2]; Renal A498 CL9013) | sensitivity classification Low(1)/Medium(2)/High(3) ([2]; Renal RXF-393 CL9016) | sensitivity classification Low(1)/Medium(2)/High(3) ([2]; Renal TK10 CL9024) | sensitivity classification Low(1)/Medium(2)/High(3) ([2]; Renal UO-31 CL9004)
6.4: −Log (GI50) ([1]; Renal UO-31 CL9004)
6.8: −Log (GI50) ([1]; Colon COLO-250 CL4010)
